Reference: US7531195B2, “Schisandrin B preparation” (priority 2005, dated 2009)

Legend:
[1] = system: Hsp70; assay: Hsp70 expression in H9c2 cells (Western blot); assay type: cell-based, rat; details: 6.25 μM
Protocol: (§1) H9c2 cells, a permanent cell line derived from cardiac myoblasts of rat embryo, have early been characterized as a suitable model of myocardial cells [Hescheler et al. 1991]. H9c2 cells were cultured as monolayers in Dulbecco's modified Eagle's medium (GIBCO BRL) supplemented with 10% (v/v) fetal bovine serum. The medium contained glucose (4.5 g/L) and glutamine (4.5 mM), supplemented with NaHCO3 (17 mM), penicillin (100 IU/ml), and streptomycin (100 μg/ml). Cells were grown under an atmosphere of 5% CO2 in air at 37° C. The medium was replaced by fresh medium every 2 or 3 days. A stock of cells was grown in a 75 cm culture flask and split before confluence at a subcultivation ratio of 1:10. Cells used for experiments were seeded at a density of 3.75×10^4 cells/well on a 12-well culture plate, and the cells were grown for 24 h to about 80% confluence prior to drug treatment.
(§2) Cultured H9c2 cells were treated with (−) Schisandrin B, (+) Schisandrin B or (±) Schisandrin B (dissolved in DMSO) at 6.25 μM (0.2% DMSO final concentration) for increasing periods of time. Control cells were given the vehicle (i.e. DMSO) only.
(§3) Immediately following the drug treatment, the cells were washed twice with 0.5 ml cold PBS and treated with 100 μl lysis buffer containing 20 mM Tris HCl, 3 mM EGTA, 1% Triton X-100, 10% glycerol and 2 mM dithiothreitol, pH 7.5, with freshly added protease inhibitors (1 mM phenylmethylsulfonyl fluoride, 0.1 mM benzamide, 5 μg/ml leupeptin, 5 μg aproptinin and 5 μg/ml pepstain A). The mixture was incubated at 4° C. for 15 min with constant shaking. Then the cells were scraped off from the plate, and the extract was transferred to a microcentrifuge tube for centrifugation at 2,400 g for 3 min at 4° C. The resultant supernatant was used for Hsp analysis. Hsp25 and Hsp70 levels was estimated by Western blot analysis using specific antibodies (anti-Hsp25, catalog #SPA-801; anti-Hsp70, catalog #SPA-812) from StressGen (Vancouver, BC, Canada) following SDS-PAGE analysis cell lysates, using a separating gel of 10% acrylamide as described in Ip et. al. [2001]. Hsp25/27 and Hsp70 (human recombinant proteins from StressGen) and actin (bovine muscle from Sigma) were used as markers for reference. […] All immuno-blots were analyzed by densitometry, and the amounts (arbitrary units) of Hsp were normalized with reference to actin levels (arbitrary units) in the sample.

[2] = system: H9c2 cells; assay: Xanthine/xanthine oxidase-induced cytotoxicity (LDH leakage) in H9c2 cells; assay type: cell-based, rat; details: X/XO challenge, 6.25 μM
Protocol: as §1
(§4) Cultured H9c2 cells were treated with (−) Schisandrin B, (+) Schisandrin B or (±) Schisandrin B (dissolved in DMSO) at 6.25 μM (0.2% DMSO final concentration) for increasing periods of time. Control cells were given the vehicle (i.e. DMSO) only. Immediately following the drug or vehicle pretreatment, the cells were challenged with a mixture of xanthine (X) (0.1 mM) and xanthine oxidase (XO) (0.4 U/ml) for 4 h. The control cells were treated with the medium only. After the X/XO challenge, the medium was taken for the measurement of LDH activity, a biochemical index of cellular injury.

[3] = system: Hsp25; assay: Hsp25 expression in H9c2 cells (Western blot); assay type: cell-based, rat; details: 6.25 μM
Protocol: as §1, §2, §3

[4] = system: H9c2 cells; assay: Cellular GSH level in H9c2 cells with or without menadione challenge; assay type: cell-based, rat
Protocol: as §1
(§5) Cultured H9c2 cells were treated with (−) Schisandrin B, (+) Schisandrin B or (±) Schisandrin B (dissolved in DMSO) at 6.25 μM (0.2% DMSO final concentration) for 16 h. Control cells were given the vehicle (i.e. DMSO) only. Immediately following the drug or vehicle pretreatment, the cells were challenged with menadione (dissolved in ethanol) at 12.5 μM (0.2% ethanol final concentration) for 4 h. The control cells were treated with the medium containing 0.2% ethanol only. After the menadione challenge, the medium was taken for the measurement of LDH activity, an biochemical index of cell injury.
(§6) The cells were washed twice with 0.5 ml cold phosphate-buffered saline (PBS), An aliquot (200 μl) of 3% sulfonsalicyclic acid was then added, and the mixture was incubate at 4° C. for 10 min. After centrifuging at 300 g for 15 min at 4° C., the supernatant was used for GSH measurement by an enzymatic method of Griffith (1980).

[5] = system: H9c2 cells; assay: Cellular GSH level in H9c2 cells, time course, with or without xanthine/xanthine oxidase (X/XO) challenge; assay type: cell-based, rat; details: 6.25 μM
Protocol: as §1, §4, §6

[6] = system: H9c2 cells; assay: Menadione-induced toxicity (LDH) in H9c2 cells; assay type: cell-based, rat
Protocol: as §1, §5

[7] = system: mitochondria of brain, heart, liver and skeletal muscle; assay: Mitochondrial ATP generation capacity in various tissues of young female rats; assay type: in vivo, rat; details: 15 days; for ATP generation: (−) Sch B, α-LA, α-Toc at daily 10, 5 and 70 mg/kg respectively; for effect on mitochondrial ATP generation capacity in various tissues: α-LA 5 mg/kg, α-Toc 70 mg/kg daily
[8] = system: mitochondria of brain, heart, liver and skeletal muscle; assay: Mitochondrial antioxidant status in various tissues of young female rats; assay type: in vivo, rat; details: (−) Sch B, α-LA, α-Toc at daily 10, 5 and 70 mg/kg respectively, 15 days
Protocol: The dosages were determined with reference to the equivalent amount of crude herb prescribed for human or the daily recommended intake in health supplements. The control animals received olive oil only. Twenty-four hours after the last dose, the pentobarbital-anesthetized animals were sacrificed by cardiac excision, and brain. heart, liver and skeletal muscle tissues were obtained. Tissue samples (brain, heart, liver, and skeletal muscle) were rinsed with ice-cold isotonic buffer (50 mM Tris, 0.32 M sucrose, 1 mM Na2EDTA, 0.2 mg/ml soybean trypsin inhibitor, 0.2 mg/ml bacitracine, 0.16 mg/ml benzamidine). Tissue homogenates were prepared by homogenizing 0.8 g of myocardial tissue in 8 ml ice-cold isotonic buffer and the homogenates were used for the preparation of mitochondrial fractions by differential centrifugation, as described in Chiu and Ko (2004). The mitochondrial pellets were resuspended in 1.5 ml of isotonic buffer containing 150 μl of 2 mg/ml soybean trypsin inhibitor and constituted the mitochondrial fractions. […] (St. Louis, Mo., USA). […] Aliquots (400 μl) of mitochondrial fractions were mixed with 933 μl Triton X-100 solution (0.3%, v/v, in isotonic buffer) and sonicated for 2 min on ice. The mixtures were then subjected to measurements of mitochondrial glutathione reductase (GRD), Se-glutathione peroxidase (GPX) and glutathione S-transferases (GST) activities by spectrophotometric methods, as described in Chiu et al. (2002).

[9] = 0 h post-dosing (unpretreated control)
[10] = MENADIONE 12.5 μM for 4 h, drug 6.25 μM for 16 h
[11] = NON-MENADIONE, 6.25 μM for 16 h
[12] = X/XO challenge, 16 h post-dosing

COc1cc2c(c(OC)c1OC)-c1c(cc3c(c1OC)OCO3)CC(C)C(C)C2 (racemic) [(±) Sch B, (±) Schisandrin B]
Hsp 70 Level [1, 9]: 434 ± 15.5 AU | Hsp 70 Level ([1]; 8 h post-dosing): 389 ± 24.7 AU | Hsp 70 Level ([1]; 16 h post-dosing): 652 ± 23.9 AU | Hsp 70 Level ([1]; 24 h post-dosing): 639 ± 23.4 AU | Hsp 70 Level, percent increase vs unpretreated control (0 h) ([1]; 24 h post-dosing): (47%) | Hsp 70 Level ([1]; 48 h post-dosing): 419 ± 15.4 AU | LDH Leakage [2, 9]: 33.9 ± 0.93 U/L | LDH Leakage ([2]; 4 h post-dosing): 28.7 ± 1.35 U/L | LDH Leakage ([2]; 8 h post-dosing): 22.8 ± 0.45 U/L | LDH Leakage ([2]; 16 h post-dosing): 15.8 ± 0.91 U/L | LDH Leakage, percent protection vs unpretreated control (0 h) ([2]; 16 h post-dosing): (65%) | LDH Leakage ([2]; 24 h post-dosing): 20.1 ± 0.76 U/L | LDH Leakage ([2]; 48 h post-dosing): 29.2 ± 0.57 U/L | Hsp 25 Level [3, 9]: 1413 ± 76 AU | Hsp 25 Level ([3]; 8 h post-dosing): 1512 ± 39 AU | Hsp 25 Level ([3]; 16 h post-dosing): 1611 ± 93 AU | Hsp 25 Level ([3]; 24 h post-dosing): 1728 ± 101 AU | Hsp 25 Level, percent increase vs unpretreated control (0 h) ([3]; 24 h post-dosing): (24%) | Hsp 25 Level ([3]; 48 h post-dosing): 1332 ± 77 AU | GSH Level [4, 10]: 28.9 ± 0.66 nmol/mg protein | GSH Level, percent increase vs menadione control [4, 10]: (56%) | GSH Level [4, 11]: 46.5 ± 2.58 nmol/mg protein | GSH Level, percent increase vs non-menadione control [4, 11]: (34%) | GSH Level ([5]; NON-X/XO, 0 h post-dosing (unpretreated control)): 38.3 ± 1.16 nmol/mg protein | GSH Level ([5]; NON-X/XO, 4 h post-dosing): 44.1 ± 3.60 nmol/mg protein | GSH Level ([5]; NON-X/XO, 8 h post-dosing): 46.2 ± 1.90 nmol/mg protein | GSH Level ([5]; NON-X/XO, 16 h post-dosing): 85.8 ± 2.57 nmol/mg protein | GSH Level, percent increase vs unpretreated control (0 h) ([5]; NON-X/XO, 16 h post-dosing): (124%) | GSH Level ([5]; NON-X/XO, 24 h post-dosing): 76.6 ± 0.88 nmol/mg protein | GSH Level ([5]; NON-X/XO, 48 h post-dosing): 58.8 ± 6.54 nmol/mg protein | GSH Level ([5]; X/XO challenge, 0 h post-dosing (unpretreated control)): 14.5 ± 1.06 nmol/mg protein | GSH Level ([5]; X/XO challenge, 4 h post-dosing): 15.8 ± 0.49 nmol/mg protein | GSH Level ([5]; X/XO challenge, 8 h post-dosing): 16.7 ± 1.32 nmol/mg protein | GSH Level [5, 12]: 22.3 ± 0.15 nmol/mg protein | GSH Level, percent increase vs unpretreated control (0 h) [5, 12]: (54%) | GSH Level ([5]; X/XO challenge, 24 h post-dosing): 18.9 ± 0.50 nmol/mg protein | GSH Level ([5]; X/XO challenge, 48 h post-dosing): 14.3 ± 1.04 nmol/mg protein | LDH [6, 10]: 23.6 ± 0.56 U/ml | LDH, percent protection vs menadione control [6, 10]: (43%) | LDH [6, 11]: 14.6 ± 0.67 U/ml

O=C(O)CCCCC1CCSS1 (stereo not drawn) [α-LA, α-lipoic acid]
ATP generation ([7]; BRAIN): 72 ± 4 percent control | ATP generation ([7]; HEART): 68 ± 9 percent control | ATP generation ([7]; LIVER): 77 ± 5 percent control | ATP generation ([7]; SKELETAL MUSCLE): 101 ± 1 percent control | effect on mitochondrial ATP generation capacity in various tissues [7]: decreased | GPX ([8]; BRAIN): 126 ± 9 percent control | GRD ([8]; BRAIN): 131 ± 5 percent control | GSH ([8]; BRAIN): 93 ± 2 percent control | GST ([8]; BRAIN): 103 ± 3 percent control | α-Toc level ([8]; BRAIN): 110 ± 6 percent control | GPX ([8]; HEART): 105 ± 9 percent control | GRD ([8]; HEART): 144 ± 11 percent control | GSH ([8]; HEART): 103 ± 4 percent control | GST ([8]; HEART): 119 ± 6 percent control | α-Toc level ([8]; HEART): 111 ± 4 percent control | GPX ([8]; LIVER): 159 ± 10 percent control | GRD ([8]; LIVER): 143 ± 8 percent control | GSH ([8]; LIVER): 117 ± 2 percent control | GST ([8]; LIVER): 112 ± 3 percent control | α-Toc level ([8]; LIVER): 124 ± 13 percent control | GPX ([8]; SKELETAL MUSCLE): 117 ± 5 percent control | GRD ([8]; SKELETAL MUSCLE): 123 ± 12 percent control | GSH ([8]; SKELETAL MUSCLE): 154 ± 12 percent control | GST ([8]; SKELETAL MUSCLE): 171 ± 19 percent control | α-Toc level ([8]; SKELETAL MUSCLE): 147 ± 14 percent control

Cc1c(C)c2c(c(C)c1O)CC[C@@](C)(CCC[C@H](C)CCC[C@H](C)CCCC(C)C)O2 [α-Toc, α-tocopherol]
ATP generation ([7]; BRAIN): 62 ± 8 percent control | ATP generation ([7]; HEART): 95 ± 12 percent control | ATP generation ([7]; LIVER): 83 ± 8 percent control | ATP generation ([7]; SKELETAL MUSCLE): 80 ± 8 percent control | effect on mitochondrial ATP generation capacity in various tissues [7]: decreased | GPX ([8]; BRAIN): 121 ± 12 percent control | GRD ([8]; BRAIN): 153 ± 10 percent control | GSH ([8]; BRAIN): 119 ± 6 percent control | GST ([8]; BRAIN): 121 ± 5 percent control | α-Toc level ([8]; BRAIN): 139 ± 9 percent control | GPX ([8]; HEART): 130 ± 10 percent control | GRD ([8]; HEART): 243 ± 20 percent control | GSH ([8]; HEART): 152 ± 9 percent control | GST ([8]; HEART): 159 ± 7 percent control | α-Toc level ([8]; HEART): 151 ± 5 percent control | GPX ([8]; LIVER): 169 ± 14 percent control | GRD ([8]; LIVER): 161 ± 5 percent control | GSH ([8]; LIVER): 133 ± 11 percent control | GST ([8]; LIVER): 128 ± 3 percent control | α-Toc level ([8]; LIVER): 214 ± 31 percent control | GPX ([8]; SKELETAL MUSCLE): 136 ± 7 percent control | GRD ([8]; SKELETAL MUSCLE): 149 ± 8 percent control | GSH ([8]; SKELETAL MUSCLE): 153 ± 6 percent control | GST ([8]; SKELETAL MUSCLE): 176 ± 13 percent control | α-Toc level ([8]; SKELETAL MUSCLE): 189 ± 11 percent control
